Structures are written as SMILES. Converted amounts (≈) assume the structure as drawn.

Data set [1] has as its system Pseudomonas aeruginosa. Nature of the data set: Antimicrobial activity against Pseudomonas aeruginosa PA2616 harboring delta mexAB-OprM mutant by broth microdilution method. Type of data set: functional.
Data set [2] deals with T1, UDP-3-O-acyl-N-acetylglucosamine deacetylase (Escherichia coli K-12), P0A725 [C125S].
T1 sequence (whole entry): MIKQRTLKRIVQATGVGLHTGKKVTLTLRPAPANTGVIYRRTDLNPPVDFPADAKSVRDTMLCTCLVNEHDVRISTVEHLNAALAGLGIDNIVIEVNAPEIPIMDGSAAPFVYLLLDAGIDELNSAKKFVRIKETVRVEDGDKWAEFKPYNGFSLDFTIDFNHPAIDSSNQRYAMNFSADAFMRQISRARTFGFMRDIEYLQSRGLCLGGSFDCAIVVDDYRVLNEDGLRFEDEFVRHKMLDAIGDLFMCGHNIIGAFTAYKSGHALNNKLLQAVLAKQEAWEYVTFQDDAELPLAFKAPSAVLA

Data set [3] deals with T2, UDP-3-O-acyl-N-acetylglucosamine deacetylase (Pseudomonas aeruginosa (strain ATCC 15692 / PAO1 / 1C / PRS 101 / LMG12228)), P47205 [C40S].
T2 sequence (whole entry): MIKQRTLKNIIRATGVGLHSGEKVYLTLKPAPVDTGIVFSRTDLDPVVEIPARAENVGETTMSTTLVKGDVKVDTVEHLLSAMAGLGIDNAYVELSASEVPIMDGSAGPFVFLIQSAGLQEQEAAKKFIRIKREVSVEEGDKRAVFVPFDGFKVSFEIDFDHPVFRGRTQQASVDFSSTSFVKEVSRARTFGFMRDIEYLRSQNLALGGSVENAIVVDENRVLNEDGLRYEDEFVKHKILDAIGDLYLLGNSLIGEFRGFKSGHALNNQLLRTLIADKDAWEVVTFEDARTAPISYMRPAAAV

The test system of data set [4] is Escherichia coli. Put plainly: microbe, parasite or virus in culture. The conditions noted are these: ATCC 25922.
Description: Antibacterial activity against wild-type Escherichia coli ATCC 25922 by broth microdilution method
Data set [5] deals with Klebsiella pneumoniae. Put plainly: microbe, parasite or virus in culture. The conditions noted are these: T 6474.
Description: Antibacterial activity against multi-drug resistant Klebsiella pneumoniae T 6474 by broth microdilution method
The subject of data set [6] is Pseudomonas aeruginosa. Nature of the data set: microbe, parasite or virus in culture. The conditions noted are these: ATCC 27853.
Description: Antimicrobial activity against Pseudomonas aeruginosa ATCC 27853 by broth microdilution method
Data set [7] concerns Pseudomonas aeruginosa. Nature of the data set: microbe, parasite or virus in culture. The conditions noted are these: PAO1.
Description: Antimicrobial activity against wild-type Pseudomonas aeruginosa PAO1 by broth microdilution method
A short description of data set [8]: physchem. The conditions noted are these: n-octanol/phosphate buffered saline, pH 7.4.
Description: n-Octanol/phosphate buffered saline partition coefficient, log D of the compound at pH 7.4 by LC-UV method
The nature of data set [9]: physchem. As to conditions: DMSO, pH 7.
Description: Solubility of the compound in DMSO at pH 7 incubated for 24 hrs by LC-UV method
The nature of data set [10]: physchem. The conditions noted are these: DMSO, pH 9.
Description: Solubility of the compound in DMSO at pH 9 incubated for 24 hrs by LC-UV method
Data set [11] can be described thus: physchem. As to conditions: DMSO, pH 4.
Description: Solubility of the compound in DMSO at pH 4 incubated for 24 hrs by LC-UV method

Consider `COc1ccc(-c2cn(CC[C@](C)(C(=O)NO)S(C)(=O)=O)c(=O)o2)c(F)c1`, for which the MIC in data set [1] was 1 mg/L (≈ 2.49 µM); in [4] it was 8 mg/L (≈ 19.9 µM); in [5] it was 16 mg/L (≈ 39.8 µM); in data set [6], 8 mg/L (≈ 19.9 µM); in [7], 8 mg/L (≈ 19.9 µM). In addition, the shift in melting temperature (ΔTm) in [2] was determined as 5.2 °C; in data set [3] it was 9.9 °C.

With `C[C@@](CCN1Cc2cc(C#Cc3ccc([C@H]4C[C@@H]4CO)cc3)cn2C1=O)(C(=O)NO)S(C)(=O)=O`, the ΔTm is 12.1 °C in data set [2] and 13.4 °C in data set [3]. In data set [8], this compound had a logD of 1.4. The solubility at 24 h in data set [9] amounted to 0.024 mg/mL (≈ 49.4 µM); in data set [10] it was 0.17 mg/mL (≈ 350 µM); in data set [11] it was 0.011 mg/mL (≈ 22.7 µM). The MIC was not above 0.06 mg/L in data set [4], not above 0.06 mg/L in data set [5], 0.5 mg/L (≈ 1.03 µM) in data set [6] and 1 mg/L (≈ 2.06 µM) in data set [7].

For `C[C@@](CCN1Cc2cc(C#CC#CC3(N)CC3)sc2C1=O)(C(=O)NO)S(C)(=O)=O.Cl`, the ΔTm amounted to 10 °C in data set [2] and 12.5 °C in data set [3]. The compound further gave a pH-dependent lipophilicity (logD) in data set [8] of 1. For the same compound, the values for the solubility at 24 h in [9], in data set [10] and in [11] were 0.207 mg/mL, more than 0.74 mg/mL and more than 0.74 mg/mL, respectively. In addition, the MIC in data set [4] was found to be 0.25 mg/L; in data set [5], 0.5 mg/L; in data set [6], 1 mg/L; in data set [7], 1 mg/L.

Turning to `COc1ccc(-c2cn3c(n2)CN(CC[C@](C)(C(=O)NO)S(C)(=O)=O)C3=O)c(F)c1`, the MIC is 8 mg/L (≈ 18.2 µM) in data set [1]; 4 mg/L (≈ 9.08 µM) in [4]; 16 mg/L (≈ 36.3 µM) in data set [5]; more than 32 mg/L in data set [6]; more than 32 mg/L in data set [7]. Moreover, the shift in melting temperature (ΔTm) in data set [2] turned out to be 6 °C; in data set [3], 6.9 °C.

As for `COc1ccc(-c2cnc3c(c2)CN(CCC(C)(C(=O)NO)S(C)(=O)=O)C3=O)c(F)c1` (racemic), the MIC in data set [1] was 16 mg/L (≈ 35.4 µM); in data set [4] it was 32 mg/L (≈ 70.9 µM); in [5], more than 32 mg/L; in data set [6] it was 32 mg/L (≈ 70.9 µM); in data set [7], more than 32 mg/L. In addition, the values for the ΔTm in data set [2] and in data set [3] were 5.6 °C and 7 °C, respectively.

In the case of `COc1ccc(-c2cn(CC[C@@](C)(C(=O)NO)S(C)(=O)=O)c(=O)o2)c(F)c1`, the MIC in [1] was 16 mg/L (≈ 39.8 µM); in [4], more than 32 mg/L; in data set [5], more than 32 mg/L; in [6], more than 32 mg/L; in data set [7], more than 32 mg/L. The ΔTm was 1.9 °C in data set [2] and 3.7 °C in [3].

For `C[C@@](CCN1Cc2cc(C#CC#CC3(O)COC3)sc2C1=O)(C(=O)NO)S(C)(=O)=O`, the results for the ΔTm in data set [2] and in data set [3] were 7.4 °C and 12.2 °C, respectively. In [8], this compound registered a logD of 0.5. The solubility at 24 h in data set [9], in [10] and in data set [11] was more than 0.76 mg/mL throughout. Also, the MIC was found to be 2 mg/L (≈ 4.42 µM) in data set [4], 4 mg/L (≈ 8.84 µM) in data set [5], 4 mg/L (≈ 8.84 µM) in data set [6] and 4 mg/L (≈ 8.84 µM) in [7].

As to `CC(C)(O)C#CC#Cc1cc2c(s1)C(=O)N(CC[C@](C)(C(=O)NO)S(C)(=O)=O)C2`, the thermal shift (ΔTm) in [2] is 9.9 °C; in [3], 13.6 °C. The compound further displayed a logD in data set [8] of 1.2. The solubility at 24 h in data set [9], in [10] and in data set [11] was more than 0.74 mg/mL in each case. In addition, the MIC in [4] was found to be 0.5 mg/L (≈ 1.14 µM); in data set [5], 2 mg/L (≈ 4.56 µM); in [6], 1 mg/L (≈ 2.28 µM); in [7], 2 mg/L (≈ 4.56 µM).

As for `C[C@@](CCN1Cc2cc(C#CC#C[C@H]3C[C@@H]3CO)sc2C1=O)(C(=O)NO)S(C)(=O)=O`, the ΔTm came to 12.2 °C in data set [2] and 15 °C in [3]. The compound further registered a logD in data set [8] of 1.3. Also, the figures for the solubility at 24 h in data set [9], in data set [10] and in data set [11] were 0.603 mg/mL (≈ 1340 µM), more than 0.76 mg/mL and 0.522 mg/mL (≈ 1160 µM), respectively. For the same compound, the MIC in data set [4] came out at 0.15 mg/L (≈ 0.333 µM); in data set [5], 0.25 mg/L (≈ 0.555 µM); in [6] it was 0.5 mg/L (≈ 1.11 µM); in data set [7], 0.5 mg/L (≈ 1.11 µM).

`C[C@@](CCN1Cc2cc(C#Cc3ccc(CNS(C)(=O)=O)cc3)cn2C1=O)(C(=O)NO)S(C)(=O)=O`: the shift in melting temperature (ΔTm) came to 11.2 °C in [2] and 13.2 °C in data set [3]. Further, the log distribution coefficient (logD) in [8] was 1. In addition, the results for the solubility at 24 h in [9], in data set [10] and in data set [11] were 0.003 mg/mL (≈ 5.74 µM), 0.056 mg/mL (≈ 107 µM) and 0.001 mg/mL (≈ 1.91 µM), respectively. In addition, the MIC worked out at 0.25 mg/L (≈ 0.478 µM) in [4], 0.5 mg/L (≈ 0.957 µM) in [5], 1 mg/L (≈ 1.91 µM) in [6] and 1 mg/L (≈ 1.91 µM) in data set [7].

Consider `C[C@@](CCN1Cc2cc(C#Cc3ccc(CN4CCOCC4)cc3)ccc2C1=O)(C(=O)NO)S(C)(=O)=O`, for which the shift in melting temperature (ΔTm) in [2] was 11 °C; in [3], 13.8 °C. The same compound returned a logD in data set [8] of 1.8. For the same compound, the solubility at 24 h in data set [9] is 0.148 mg/mL (≈ 282 µM); in data set [10], more than 0.89 mg/mL; in [11], more than 0.89 mg/mL. Further, the MIC in data set [4] was 0.12 mg/L (≈ 0.228 µM); in data set [5], 0.5 mg/L (≈ 0.951 µM); in [6], 2 mg/L (≈ 3.8 µM); in data set [7], 2 mg/L (≈ 3.8 µM).

In the case of `C[C@@](CCN1Cc2cc(C#CC#C[C@@H]3C[C@H]3CO)sc2C1=O)(C(=O)NO)S(C)(=O)=O`, the shift in melting temperature (ΔTm) in data set [2] was 11.2 °C; in [3] it was 15 °C. The compound further gave a pH-dependent lipophilicity (logD) in [8] of 1.3. The solubility at 24 h in data set [9] amounted to 0.377 mg/mL (≈ 837 µM); in [10] it was 0.38 mg/mL (≈ 843 µM); in data set [11], 0.464 mg/mL (≈ 1030 µM). For the same compound, the MIC in data set [4] turned out to be 0.12 mg/L (≈ 0.266 µM); in data set [5], 0.25 mg/L (≈ 0.555 µM); in data set [6], 0.5 mg/L (≈ 1.11 µM); in data set [7], 0.5 mg/L (≈ 1.11 µM).

As for `C[C@@](CCN1Cc2cc(C#CC#CC3(CO)CC3)sc2C1=O)(C(=O)NO)S(C)(=O)=O`, the ΔTm in data set [2] is 10.9 °C; in [3] it was 14.2 °C. The log distribution coefficient (logD) in data set [8] was found to be 1.2. Further, the solubility at 24 h is more than 0.76 mg/mL in data set [9], more than 0.76 mg/mL in [10] and 0.443 mg/mL (≈ 983 µM) in [11]. In addition, the MIC in data set [4], in data set [5], in [6] and in data set [7] was 1 mg/L (≈ 2.22 µM) in each case.

With `C[C@@](CCN1Cc2cc(C#Cc3ccc([C@H](O)CO)cc3)sc2C1=O)(C(=O)NO)S(C)(=O)=O`, the ΔTm in data set [2] worked out at 12.1 °C; in data set [3] it was 14.3 °C. In data set [8], this compound yielded a logD of 0.8. Further, the solubility at 24 h in data set [9] came out at 0.3 mg/mL (≈ 609 µM); in [10], 0.814 mg/mL (≈ 1650 µM); in [11] it was 0.23 mg/mL (≈ 467 µM). In addition, the MIC in data set [4] is 0.5 mg/L (≈ 1.02 µM); in [5], 1 mg/L (≈ 2.03 µM); in data set [6], 1 mg/L (≈ 2.03 µM); in data set [7], 2 mg/L (≈ 4.06 µM).

Regarding `C[C@@](CCN1Cc2cc(C#CC#CC3(O)COC3)cn2C1=O)(C(=O)NO)S(C)(=O)=O`, the shift in melting temperature (ΔTm) in data set [2] was determined as 8.8 °C; in data set [3], 11.3 °C. In addition, in data set [8], the logD was determined as 0.3. Besides, the solubility at 24 h in [9], in [10] and in data set [11] was more than 0.74 mg/mL throughout. Moreover, the MIC in data set [4] came to 1 mg/L (≈ 2.3 µM); in data set [5], 2 mg/L (≈ 4.59 µM); in [6] it was 2 mg/L (≈ 4.59 µM); in [7] it was 4 mg/L (≈ 9.19 µM).

Consider `C[C@@](CCN1Cc2cc(C#CC#CCOC(=O)N3CCC(O)CC3)cn2C1=O)(C(=O)NO)S(C)(=O)=O`, for which the shift in melting temperature (ΔTm) came out at 9.4 °C in data set [2] and 12.9 °C in data set [3]. This compound came in with a logD in data set [8] of 0.9. Besides, the solubility at 24 h is 0.785 mg/mL (≈ 1510 µM) in data set [9], more than 0.88 mg/mL in [10] and 0.641 mg/mL (≈ 1230 µM) in [11]. Besides, the MIC in [4] was 0.5 mg/L (≈ 0.96 µM); in [5], 1 mg/L (≈ 1.92 µM); in [6] it was 2 mg/L (≈ 3.84 µM); in data set [7] it was 2 mg/L (≈ 3.84 µM).

The values above are taken from ChEMBL document CHEMBL4321865, “Discovery of Novel Inhibitors of LpxC Displaying Potent in Vitro Activity against Gram-Negative Bacteria” (J Med Chem, 2020).
